From patent US10280174B2, “Salt of fused pyrimidine compound and crystal thereof” (TAIHO PHARMACEUTICAL CO., LTD., priority 2015, dated 2019) come the findings set out here.

The series in a line: Research of base addition salts of Compound A (solubility observation). The format is physicochemical. The note with it: water / organic solvent, in words. On the procedure:
A research was carried out on salt formation with sodium and magnesium, among inorganic bases. Specifically, Compound A was dissolved in an appropriate solvent, and each kind of the bases was added thereto (from 0.5 to 1.5 equivalent), and stirring was carried out for overnight, to thereby determine whether or not a salt formation occurred. As a result, in salt formation with sodium, decomposition remarkably proceeded, and therefore, the research was suspended. From the case of magnesium, hemi magnesium salt of Compound A was obtained (Reference Example 6).

With `C=CC(=O)N1CCC[C@@H](n2nc(C(=O)Nc3nc4ccccc4o3)c3c(N)ncnc32)C1.C=CC(=O)N1CCC[C@@H](n2nc(C(=O)Nc3nc4ccccc4o3)c3c(N)ncnc32)C1.[Mg]` [hemi magnesium salt of Compound A, (R)-1-(1-acryloylpiperidin-3-yl)-4-amino-N-(benzo[d]oxazol-2-yl)-1H-pyrazolo[3,4-d]pyrimidine-3-carboxamide.hemi magnesium salt], the solubility result was “low solubility to water and to an organic solvent”.
